Data on one molecule can be found in patent publication US20120225889A1, “USE OF MACROCYCLIC LACTONE DERIVATIVES FOR THE TREATMENT OF INFLAMMATORY DISORDERS” (PIRAMAL LIFE SCIENCES LIMITED, priority 2010, published 2012).

Molecules are shown by their SMILES.

The subject of the assay is IL-6. Nature of the assay: Synovial tissue assay (spontaneous production): IL-6. It counts as cell-based. As to conditions: Homo sapiens, synovial tissue cells from rheumatoid arthritis patients, 16 h, read-out: IC50 of IL-6 inhibition. An excerpt: The ability of compounds of the present invention to inhibit spontaneous production of cytokines from freshly isolated human synovial tissue cells was designed as in reference, Lancet, 29, 244-247, (1989) the disclosure of which is incorporated by reference for the teaching of the assay.
Synovial tissue was obtained from rheumatoid arthritis patients undergoing knee replacement surgery. […] Subsequently, the cells were washed 3 times with RPMI 1640 culture medium and resuspended in complete medium (RPMI 1640 culture medium supplemented with 5% FBS and 5% human serum-AB+(Sigma, USA) at a concentration of 1×10^6 cells/mL. The viability of synovial cells was determined by trypan blue dye exclusion and was uniformly ≧98%. For the experiment, 100 μL of cell suspension was added to the wells of a 96-well culture plate (Nunc, USA). Following cell plating, 100 μL of the culture medium and 1 μL of various concentrations of the test compound (test compound was dissolved in DMSO to obtain a stock solution of 20 mM. […] The IC50 values were calculated by a nonlinear regression method using the GraphPad software (Prism 3.03).

Regarding `C/C=C/C(O)C(C)/C=C/C(=N\O)C(C)C(O)C(C)C1OC(=O)/C(OC)=C/C(C)=C/C(C)C(O)C(CC)C(O)C(C)C/C(C)=C/C=C/C1OC` (stereo not shown) [Compound of example 7, (3Z,5E,13E,15E)-18-((5Z,6E,10E)-3,9-Dihydroxy-5-(hydroxymino)-4,8-dimethyldodeca-6,10-dien-2-yl)-9-ethyl-8,10-dihydroxy-3,17-dimethoxy-5,7,11,13-tetramethyl oxacyclooctadeca-3,5,13,15-tetraen-2-one], the IC50 came to 300 nM.

What is called IC50 is the concentration that inhibits the measured activity by half.
